Results reported in ChEMBL document CHEMBL6103565, “Current strategies in design and synthesis of antifungals hybrid and chimeric diazine derivatives” (Bioorg Med Chem, 2025).
Converted amounts (≈) assume the structure as drawn.

Columns and labels:
Candida albicans [1] = test: Antifungal activity against Candida albicans NRRL-Y477 assessed as zone of inhibition by disc diffusion method; assay type: functional
Aspergillus niger [2] = test: Antifungal activity against Aspergillus niger ATCC 16404 assessed as inhibition of mycelial growth relative to control; assay type: functional
Candida albicans [3] = test: Antifungal activity against Candida albicans ATCC 10231 assessed as inhibition of mycelial growth relative to control; assay type: functional
Candida albicans [4] = test: Antifungal activity against Candida albicans assessed as fungal growth inhibition; assay type: functional
Candida albicans [5] = test: Antifungal activity against Candida albicans ATCC 10231 assessed as zone of inhibition incubated for 24 hrs by disc diffusion method; assay type: functional
Penicillium frequentans = test: Antifungal activity against Penicillium frequentans ATCC 10110 assessed as reduction in fungal growth incubated ofr 48 hrs by CLSI micro-dilution method; assay type: functional
Penicillium chrysogenum = test: Antifungal activity against Penicillium chrysogenum ATCC 20044 assessed as reduction in fungal growth incubated ofr 48 hrs by CLSI micro-dilution method; assay type: functional
Aspergillus flavus = test: Antifungal activity against Aspergillus flavus ATCC 20046 assessed as reduction in fungal growth incubated ofr 48 hrs by CLSI micro-dilution method; assay type: functional
Alternaria alternata = test: Antifungal activity against Alternaria alternata ATCC 8741 assessed as reduction in fungal growth incubated ofr 48 hrs by CLSI micro-dilution method; assay type: functional
Fusarium solani = test: Antifungal activity against Fusarium solani ATCC 20327 assessed as reduction in fungal growth incubated ofr 48 hrs by CLSI micro-dilution method; assay type: functional
Aspergillus niger [6] = test: Antifungal activity against Aspergillus niger MTCC 282 assessed as reduction in microbial growth after 24 hrs by broth micro-dilution method; assay type: functional
Rhizopus microsporus = test: Antifungal activity against Rhizopus microsporus assessed as diameter of inhibition zone; assay type: functional
Candida albicans [7] = test: Antifungal activity against Candida albicans assessed as diameter of inhibition zone; assay type: functional
Candida albicans [8] = test: Antifungal activity against Candida albicans SC5314 assessed as reduction in fungal growth incubated for 72 hrs by broth microdilution method; assay type: functional
Aspergillus fumigatus = test: Antifungal activity against Aspergillus fumigatus RCMB 002568 assessed as diameter of zone inhibition; assay type: functional
Candida albicans [9] = test: Antifungal activity against Candida albicans RCMB 005036 assessed as diameter of zone inhibition; assay type: functional
Aspergillus clavatus = test: Antifungal activity against Aspergillus […] MTCC 1323 assessed as reduction in microbial growth after 48 hrs by broth dilution method; assay type: functional
Aspergillus niger [10] = test: Antifungal activity against Aspergillus niger MTCC 282 assessed as reduction in microbial growth after 48 hrs by broth dilution method; assay type: functional
Aspergillus niger [11] = test: Antifungal activity against Aspergillus niger MTCC 282 by disc diffusion method; assay type: functional, organism-based
Candida albicans [12] = test: Antifungal activity against Candida albicans MTCC 227 assessed as reduction in microbial growth after 48 hrs by broth dilution method; assay type: functional
Candida albicans [13] = test: Antifungal activity against Candida albicans MTCC 227 by disc diffusion method; assay type: functional, organism-based

For `C[C@@H]1[C@H](O)[C@@H](C)/C=C/C=C/CC/C=C/C=C/C=C/C=C/[C@H](O[C@@H]2O[C@H](C)[C@@H](O)[C@H](N)[C@@H]2O)C[C@@H]2O[C@](O)(C[C@@H](O)[C@H](O)CC[C@@H](O)C[C@@H](O)C[C@@H](O)CC(=O)O[C@H]1C)C[C@H](O)[C@H]2C(=O)O`, the “inhibition zone (IZ)” value (Candida albicans [1]) was 23 mm, the “inhibition (INH)” value (Aspergillus niger [2]) was 66% and the “inhibition (INH)” value (Candida albicans [3]) was 63%. For the same compound, the MIC (Candida albicans [4]) was 1 µg/mL (≈ 1.08 µM) and the “inhibition zone (IZ)” value (Candida albicans [5]) was 26 mm.
In the case of `CCC(C)CC(C)CCCCCCCCC(=O)N[C@H]1C[C@@H](O)[C@@H](NCCN)NC(=O)[C@@H]2[C@@H](O)CCN2C(=O)[C@H]([C@H](O)CCN)NC(=O)[C@H]([C@H](O)[C@@H](O)c2ccc(O)cc2)NC(=O)[C@@H]2C[C@@H](O)CN2C(=O)[C@H]([C@@H](C)O)NC1=O` (stereo partly drawn), the MIC (Penicillium frequentans) is reported as 0.25 µg/mL (≈ 0.229 µM), the MIC (Penicillium chrysogenum) is reported as 0.25 µg/mL (≈ 0.229 µM) and the MIC (Aspergillus flavus) is reported as 0.25 µg/mL (≈ 0.229 µM). The MIC (Alternaria alternata) was 0.25 µg/mL (≈ 0.229 µM) and the MIC (Fusarium solani) was 0.25 µg/mL (≈ 0.229 µM).
In the case of `COC(=O)COc1cccc(OCC(=O)OC)c1C(=O)C[n+]1cc2ccccc2cn1.[Br-]`, the MIC (Candida albicans [4]) is reported as 1.25 µg/mL.
For `Clc1cnc(C2=Nc3ccccc3SC(c3cccs3)C2)cn1` (stereo not drawn), the MIC (Aspergillus niger [6]) was 44 µM.
`O=C1CCC(=O)N(CC(=O)n2c3ccccc3c3ccccc32)N1` was tested, and the “inhibition zone (IZ)” value (Rhizopus microsporus) was 14 mm and the “inhibition zone (IZ)” value (Candida albicans [7]) was 18 mm.
Work on `Clc1ccc(C2CC(c3cnc(Cl)cn3)=Nc3ccccc3S2)c(Cl)c1` (stereo not drawn) yielded an MIC (Aspergillus niger [6]) of 19 µM.
For `O=C(NNc1nc2ccccc2nc1/C=C/c1ccccc1O)Nc1cccc(Cl)c1`, the MIC (Candida albicans [8]) was 0.125 µM (≈ 0.054 µg/mL).
With `COc1ccc(NC(=O)c2nn(-c3ccccc3)c(=N)c(C#N)c2C)cc1` the “inhibition zone (IZ)” value (Aspergillus fumigatus) was 20 mm and the “inhibition zone (IZ)” value (Candida albicans [9]) was 26 mm.
`CC(=O)N1N=C(C2=C(C)NC(=O)NC2c2ccc(F)cc2)OC1c1ccc([N+](=O)[O-])cc1` (stereo not drawn) gave an MIC (Aspergillus clavatus) of 50 µg/mL, an MIC (Aspergillus niger [10]) of 50 µg/mL and an EC50 (Aspergillus niger [11]) of 0.14 µg/mL (≈ 0.319 µM). The MIC (Candida albicans [12]) was 100 µg/mL and the EC50 (Candida albicans [13]) was 0.14 µg/mL (≈ 0.319 µM).
For `Cc1ccc(-c2ccc(=O)n(CC3=C(Cn4nc(-c5ccc(C)cc5)ccc4=O)[C@]4(C)CCCC(C)(C)C4=CC3=O)n2)cc1`, the MIC (Penicillium frequentans) was 5 µg/mL (≈ 8.52 µM), the MIC (Penicillium chrysogenum) was 5 µg/mL (≈ 8.52 µM) and the MIC (Aspergillus flavus) was 5 µg/mL (≈ 8.52 µM). The MIC (Alternaria alternata) was 5 µg/mL (≈ 8.52 µM) and the MIC (Fusarium solani) was 5 µg/mL (≈ 8.52 µM).
